# Test system: Akt phosphorylation (S473)
# Assay: Western blot of Akt phosphorylation (S473) in U2-OS cells
# Type: cell-based
# Conditions: 1-hour pre-treatment
# Method: Fig.2: MW01 and MW05 are potent and selective kinase inhibitors. […] Heatmap indicates lower IC50. […] (C) Western blot analysis of NF-κB p65 phosphorylation (S536) and Akt phosphorylation (S473) following 1-hour pre-treatment with DMSO, MW01 (10 µM), MW05 (10µM), PI-103 (1 µM), NU7441 (1 µM), or MU1210 (1 µM) in unstimulated, after 90 min irradiation (IR, 20 Gy), or after 20 min TNFα (10 ng/ml) conditions in U2-OS cells. (D) mRNA expression analysis of CLK2 (top), 48 hours after transfection with siNC, CLK2 si1, or CLK2 si2. mRNA expression analysis of NFKBIA (bottom), 48 hours after transfection with siNC, CLK2 si1, orCLK2 si2. Values are normalized to unstimulated siNC expressing cells. Statistical comparison was made between experimental conditions and respective paired siNC expressing controls. ns: not significant; **, ***, ****: p<0.01, p<0.001, p<0.000. (E) Western blot analysis of U2-OS cells after transfection with siNC or CLK2 si2 unstimulated, after irradiation (IR), or after TNFα treatment. Vinculin used as loading control. (F) IC50 (nM) of all CLK isoforms for MW01 and MW05. (G) Quantification from (E) with CLK2 knockdown and p-p65 quantification (top left and top right, respectively) and CLK4 knockdown and p-p65 (bottom left and bottom right, respectively. ns: not significant; **, ***, ****: p<0.01, p<0.001, p<0.0001.
# Cells were collected by scraping and lysed in Baeuerle lysis buffer supplemented with Protease (Thermo Fisher Scientific, 78429) and Phosphatase (Thermo Fisher Scientific, 78420) inhibitors after the appropriate treatment and time point. Proteins were quantified by Bradford assay (Bio-Rad, 5000006) and 20-50 µg of extracted proteins were loaded on 4-20% Protein Gel (Bio-Rad, 4568096) and then transferred onto a PVDF membrane (Bio-Rad, 1620177) using Tris-Glycine buffer with 20% of methanol. Blocking was performed for 1h with 5% not-fat dry milk in PBS 1X. […] The membranes were analyzed by ECL (Thermo Fisher Scientific, 34580) and detected by ChemiDoc XRS+ (Bio-Rad) using ImageLab software (Bio-Rad). […]
compound,measurement,value
"COc1ccc2c(c1OC)c(=O)n1c3ccc(O)cc3c3ccnc2c31 [MW01, 5-Hydroxy-10,11-dimethoxy-9H-benzo[c]indolo[3,2,1-ij][1,5]naphthyridin-9-one]",reduction of p-Akt,complete reduction
"COc1ccc2cc3c(N)nn(C(=O)c4cccc(N(C)C)c4)c3nc2c1 [MW05, (3-Amino-7-methoxypyrazolo[3,4-b]quinolin-1-yl)-[3-(dimethylamino)phenyl]methanone]",reduction of p-Akt,partial reduction
